This note sets out measurements from US20170253607A1, “LONG-ACTING HIV PROTEASE INHIBITOR” (Shionogi & Co., Ltd., priority 2014, published 2017).

In general, IC50 refers to the concentration needed to halve the response being measured. Read a high IC50 as weaker potency in that assay.

The assay concerns the target HIV-1 PR (Human immunodeficiency virus type 1 group M subtype B, UniProt P04585). The assay is described as follows: HIV-protease inhibitory activity assay (FRET peptide substrate). The assay is classed as biochemical. Particulars: Test Example 1. In a few lines:
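HIV-1 PR (0.83 ng) preincubated with compounds 20 min at room temperature in 0.1 mol/L NaAc, 0.5 mol/L NaCl, 1 mmol/L EDTA, 1 mmol/L DTT, 0.05% Tween 20, pH 4.8. Cleavage of HiLyte Fluor 488/QXL 520 FRET peptide (2 μmol/L) read after 60 minutes at 485/535 nm; IC50 from four-parameter logistic fit.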
`COc1ccc(S(=O)(=O)N(CC(C)C)CC(O)C(Cc2ccc(NCc3ccc(N4CCCCC4)cc3-c3sc4c(c3C(=O)O)CC(C)(C)CC4)cc2)NC(=O)OC2COC3(C)OCCC23)cc1` (stereo not drawn) [Compound I-677]: the IC50 is 2.32 nM. The result for `COc1ccc(S(=O)(=O)N(CC(C)C)CC(O)C(Cc2ccc(N(C)Cc3nc(N4CCCC4)ccc3-c3sc4c(c3C(=O)O)CC(C)(C)CC4)cc2)NC(=O)OC2COC3(C)OCCC23)cc1` (stereo not drawn) [Compound I-755] reads 2.69 nM; that for `COc1ccc(S(=O)(=O)N(CC(C)C)CC(O)C(Cc2ccc(NCc3nc(N4CCOCC4)sc3-c3sc4c(c3C(=O)O)CC(C)(C)CC4)cc2)NC(=O)OC2COC3(C)OCCC23)cc1` (stereo not drawn) [Compound I-738], 1.8 nM. `COc1ccc(S(=O)(=O)N(CC(C)C)C[C@@H](O)[C@H](Cc2ccccc2)NC(=O)O[C@H]2CO[C@@]3(CNC(=O)OCCCc4sc5c(c4C(=O)O)CC(C)(C)CC5)OCC[C@@H]23)cc1` [Compound I-34] yielded a concentration for half-maximal inhibition (IC50) of 1.28 nM.

In turn, `COc1ccc(S(=O)(=O)N(CC(C)C)CC(O)C(Cc2ccc(N(C)Cc3cc(C(F)(F)F)ccc3C(=O)Nc3sc4c(c3C(=O)O)CC(C)(C)CC4)cc2)NC(=O)OC2COC3(C)OCCC23)cc1` (stereo not drawn) [Compound I-734] returned a concentration for half-maximal inhibition (IC50) of 15.4 nM. Consider `COc1ccc(S(=O)(=O)N(CC(C)C)CC(O)C(Cc2ccc(N(C)Cc3cccnc3-c3sc4c(c3C(=O)O)CC(C)(C)CC4)cc2)NC(=O)OC2COC3(C)OCCC23)cc1` (stereo not drawn) [Compound I-129], for which the IC50 was 3.09 nM. Then `COc1ccc(S(=O)(=O)N(CC(C)C)CC(O)C(Cc2ccc(OCc3ccccc3-c3ccc4[nH]c(=O)c(-c5ccc(Oc6ccccc6)cc5)c(O)c4c3)cc2)NC(=O)OC2COC3(C)OCCC23)cc1` (stereo not drawn) [Compound I-180], with 2.71 nM; and `COc1ccc(S(=O)(=O)N(CC(C)C)CC(O)C(Cc2ccc(OCc3ccccc3-c3oc4c(c3C(=O)O)CCCC4)cc2)NC(=O)OC2COC3OCCC23)cc1` (stereo not drawn) [Compound I-834], with 1.15 nM. The result for `CC(C)CN(CC(O)C(Cc1ccc(OCc2ccccc2-c2sc3c(c2C(=O)O)CC(C)(C)CC3)cc1)NC(=O)OC1COC2(C)OCCC12)S(=O)(=O)c1ccc(N)cc1` (stereo not drawn) [Compound I-52] reads 2.34 nM; that for `COc1ccc(S(=O)(=O)N(CC(C)C)CC(O)C(Cc2ccc(N3CCc4c(cccc4-c4sc5c(c4C(=O)O)CC(C)(C)CC5)C3)cc2)NC(=O)OC2COC3(C)OCCC23)cc1` (stereo not drawn) [Compound I-226], 4.48 nM; that for `COc1ccc(S(=O)(=O)N(CC(C)C)CC(O)C(Cc2ccc(OC3CCN(C(=O)c4sc5c(c4C(=O)O)CC(C)(C)CC5)C3)cc2)NC(=O)OC2COC3(C)OCCC23)cc1` (stereo not drawn) [Compound I-245], 2.01 nM.

Take `COc1ccc(S(=O)(=O)N(CC2CCCC2)CC(O)C(Cc2ccc(OC3CCN(C(=O)c4ccc(Cl)cc4-c4sc5c(c4C(=O)O)CC(C)(C)CC5)C3)cc2)NC(=O)OC2COC3(C)OCCC23)cc1` (stereo not drawn) [Compound I-210]: inhibition was half-maximal at 2.15 nM (IC50). The result for `COc1ccc(S(=O)(=O)N(CC(C)C)CC(O)C(Cc2ccc(NCc3ccccc3C(=O)Nc3sc4c(c3C(=O)O)CC(C)(C)CC4)cc2)NC(=O)OC2COC3(C)OCCC23O)cc1` (stereo not drawn) [Compound I-891] reads 2.88 nM.

In the case of `COc1ccc(S(=O)(=O)N(CC(C)C)CC(O)C(Cc2ccc(-c3ccc(-c4sc5c(c4C(=O)O)CC(C)(C)CC5)cc3)cc2)NC(=O)OC2COC3(C)OCCC23)cc1` (stereo not drawn) [Compound I-183], the IC50 worked out at 2.39 nM.

In turn, `COc1ccc(S(=O)(=O)N(CC(C)C)CC(O)C(Cc2ccc(N3Cc4nc5ccccc5cc4C3=O)cc2)NC(=O)OC2COC3(C)OCCC23)cc1` (stereo not drawn) [Compound I-771] gave an IC50 of 2 nM. Then `COc1ccc(S(=O)(=O)N(CC(C)C)CC(O)C(Cc2ccc(NCc3cc(-c4sc5c(c4C(=O)O)CC(C)(C)CC5)cc4ccccc34)cc2)NC(=O)OC2COC3(C)OCCC23)cc1` (stereo not drawn) [Compound I-650], with 4.31 nM. Then `COc1ccc(S(=O)(=O)N(CC(C)C)CC(O)C(Cc2ccc(Nc3ncc(-c4sc5c(c4C(=O)O)CC(C)(C)CC5)cn3)cc2)NC(=O)OC2COC3(C)OCCC23)cc1` (stereo not drawn) [Compound I-433], with 2.49 nM. `COc1ccc(S(=O)(=O)N(CC(C)C)CC(O)C(Cc2ccc(NCc3ccccc3-c3ccc4c(c3C(=O)O)CC(C)(C)CC4)cc2)NC(=O)OC2COC3(C)OCCC23)cc1` (stereo not drawn) [Compound I-392] showed an IC50 of 2.4 nM. Then `COc1ccc(S(=O)(=O)N(CC(C)C)CC(O)C(Cc2ccc(N3CCN(c4ccc(C#N)cc4-c4sc5c(c4C(=O)O)CC(C)(C)CC5)CC3)cc2)NC(=O)OC2COC3(C)OCCC23)cc1` (stereo not drawn) [Compound I-232], with 4.1 nM; and `COc1ccc(S(=O)(=O)N(CC(C)C)C[C@@H](O)[C@H](Cc2ccc(OCc3ccc(-c4ccc(F)cc4F)cc3C(=O)NC(N)=O)cc2)NC(=O)O[C@H]2CO[C@@]3(C)OCC[C@@H]23)cc1` [Compound I-24], with 1.39 nM; and `COc1ccc(S(=O)(=O)N(CC(C)C)CC(O)C(Cc2ccc(NCc3cc(C(=O)O)c(C)o3)cc2)NC(=O)OC2COC3(C)OCCC23)cc1` (stereo not drawn) [Compound I-317], with 1.86 nM. The compound `COc1ccc(S(=O)(=O)N(CC(C)C)CC(O)C(Cc2ccc(OCCN(C)c3ccc(C#N)cc3-c3sc4c(c3C(=O)O)CC(C)(C)CC4)cc2)NC(=O)OC2COC3(C)OCCC23)cc1` (stereo not drawn) [Compound I-257] displayed an IC50 of 4.98 nM. Then `COc1ccc(S(=O)(=O)N(CC(C)C)CC(O)C(Cc2ccc(NCC3CC(C)(C)CC3c3sc4c(c3C(=O)O)CC(C)(C)CC4)cc2)NC(=O)OC2COC3OCCC23)cc1` (stereo not drawn) [Compound I-883], with 2.15 nM; and `COc1ccc(S(=O)(=O)N(CC(C)C)CC(O)C(Cc2ccc(N(C)Cc3cccc(F)c3-c3sc4c(c3C(=O)O)CC(C)(C)CC4)cc2)NC(=O)OC2COC3(C)OCCC23)cc1` (stereo not drawn) [Compound I-493], with 2.43 nM; and `COc1ccc(S(=O)(=O)N(CC(C)C)CC(O)C(Cc2ccc(N(Cc3ccccc3-c3sc4c(c3C(=O)O)CC(C)(C)CC4)CC3CCC3)cc2)NC(=O)OC2COC3(C)OCCC23)cc1` (stereo not drawn) [Compound I-463], with 5.13 nM. Then `COc1ccc(S(=O)(=O)N(CC(C)C)CC(O)C(Cc2ccc(OCC3CCN(c4ccc(C#N)cc4-c4sc5c(c4C(=O)O)CC(C)(C)CC5)CC3)cc2)NC(=O)OC2COC3(C)OCCC23)cc1` (stereo not drawn) [Compound I-325], with 31.7 nM; and `COc1ccc(S(=O)(=O)N(CC(C)C)CC(O)C(Cc2ccc(OCc3ccccc3-c3ncc4c(c3C(=O)O)CC(C)(C)CC4)cc2)NC(=O)OC2COC3(C)OCCC23)cc1` (stereo not drawn) [Compound I-251], with 2.3 nM; and `COc1ccc(S(=O)(=O)N(CC(C)C)CC(O)C(Cc2ccc(N(C)Cc3ccc(N4CC(C)(C)C4=O)cc3-c3sc4c(c3C(=O)O)CC(C)(C)CC4)cc2)NC(=O)OC2COC3(C)OCCC23)cc1` (stereo not drawn) [Compound I-750], with 4.6 nM. Compound `COc1ccc(S(=O)(=O)N(CC(C)C)CC(O)C(Cc2ccc(OCC3CCCN(c4ccc(C#N)cc4-c4sc5c(c4C(=O)O)CC(C)(C)CC5)C3)cc2)NC(=O)OC2COC3(C)OCCC23)cc1` (stereo not drawn) [Compound I-327] gave an IC50 of 10.4 nM.

`COc1ccc(S(=O)(=O)N(CC(C)C)CC(O)C(Cc2ccc(OCC3CCCN3c3ccc(C#N)cc3-c3sc4c(c3C(=O)O)CC(C)(C)CC4)cc2)NC(=O)OC2COC3(C)OCCC23)cc1` (stereo not drawn) [Compound I-326] displayed an IC50 of 9.19 nM. Compound `COc1ccc(S(=O)(=O)N(CC(C)C)CC(O)C(Cc2ccc(OCc3ccccc3-c3nc(C4=CCC(C)(C)CC4)sc3C(=O)O)cc2)NC(=O)OC2COC3OCCC23)cc1` (stereo not drawn) [Compound I-820] had an IC50 of 0.94 nM.

With `COc1ccc(S(=O)(=O)N(CC(C)C)CC(O)C(Cc2ccc(N(C)Cc3cc(-c4sc5c(c4C(=O)O)CC(C)(C)CC5)cc4ccccc34)cc2)NC(=O)OC2COC3(C)OCCC23)cc1` (stereo not drawn) [Compound I-703], it took 4.6 nM to reach half-maximal inhibition (IC50). Then `COc1ccc(S(=O)(=O)N(CC(C)C)CC(O)C(Cc2ccc(NCc3ccccc3-c3c(C(=O)O)cnc4ccsc34)cc2)NC(=O)OC2COC3(C)OCCC23)cc1` (stereo not drawn) [Compound I-501], with 1.82 nM. Then `COc1ccc(S(=O)(=O)N(CC(C)C)CC(O)C(Cc2ccc(N3CCC(C(=O)Nc4sc5c(c4C(=O)O)CC(C)(C)CC5)C3)cc2)NC(=O)OC2COC3(C)OCCC23)cc1` (stereo not drawn) [Compound I-645], with 2.51 nM; and `COc1ccc(S(=O)(=O)N(CC(C)C)CC(O)C(Cc2ccc(N(C)CC3=C(c4sc5c(c4C(=O)O)CC(C)(C)CC5)CCC(F)(F)C3)cc2)NC(=O)OC2COC3OCCC23)cc1` (stereo not drawn) [Compound I-881], with 5.89 nM; and `COc1ccc(S(=O)(=O)N(CC(C)C)CC(O)C(Cc2ccc(NCc3cc(Oc4ccccn4)ccc3-c3sc4c(c3C(=O)O)CC(C)(C)CC4)cc2)NC(=O)OC2COC3(C)OCCC23)cc1` (stereo not drawn) [Compound I-685], with 2.98 nM. The result for `COc1ccc(S(=O)(=O)N(CC(C)C)CC(O)C(Cc2ccc(OCc3ccccc3-c3ccc4c(C(=O)O)c(-c5ccc(Cl)cc5C)sc4c3)cc2)NC(=O)OC2COC3(C)OCCC23)cc1` (stereo not drawn) [Compound I-73] reads 4.73 nM.

Take `COc1ccc(S(=O)(=O)N(CC(C)C)CC(O)C(Cc2ccc(OCCNC(=O)c3cc(Cl)cc(Cl)c3O)cc2)NC(=O)OC2COC3(C)OCCC23)cc1` (stereo not drawn) [Compound I-68]: half-maximal inhibition (IC50) required 1.83 nM. `COc1ccc(S(=O)(=O)N(CC(C)C)CC(O)C(Cc2ccc(NCCn3nc4c(c3C(=O)O)CC(C)(C)CC4)cc2)NC(=O)OC2COC3(C)OCCC23)cc1` (stereo not drawn) [Compound I-516] displayed an IC50 of 2.29 nM.

`COc1ccc(S(=O)(=O)N(CC(C)C)CC(O)C(Cc2ccc(N(C)Cc3ncccc3-c3ccccc3-c3sc4c(c3C(=O)O)CC(C)(C)CC4)cc2)NC(=O)OC2COC3(C)OCCC23)cc1` (stereo not drawn) [Compound I-477] returned an IC50 of 2 nM.

`COc1ccc(S(=O)(=O)N(CC2CCC(=O)N2)CC(O)C(Cc2ccc(OCc3ccccc3-c3sc4c(c3C(=O)O)CC(C)(C)CC4)cc2)NC(=O)OC2COC3OCCC23)cc1` (stereo not drawn) [Compound I-838] returned an IC50 of 0.76 nM.

In turn, `COc1ccc(S(=O)(=O)N(CC(C)C)CC(O)C(Cc2ccc(-c3sccc3C(=O)O)cc2)NC(=O)OC2COC3(C)OCCC23)cc1` (stereo not drawn) [Compound I-108] came in with an IC50 of 1.12 nM.
